Assay results: PMC10974149, “Acheta domesticus: A Natural Source of Anti-Skin-Aging Ingredients for Cosmetic Applications” (Pharmaceuticals, 2024)
In brackets after ≈: the same amount, converted by molar mass.

Target: T1, collagenase from Clostridium histolyticum
T1 construct: gene colG
Experiment: spectrophotometric collagenase inhibition assay
Type: biochemical
Settings: positive control; substrate not stated in the assay section (FALGPA among reagents)
Text: spectrophotometric collagenase inhibition assay on collagenase from Clostridium histolyticum

Which “IC50 (μg/mL) / Collagenase Inhibition” value does the source give for `CC1(C)CC[C@]2(C(=O)O)CC[C@]3(C)C(=CC[C@@H]4[C@@]5(C)CC[C@H](O)C(C)(C)[C@@H]5CC[C@]43C)[C@@H]2C1` [OA, Oleanolic acid] here?
The value was 3 ± 1 µg/mL (≈ 6.57 µM).
